In article PMC3820767, “Turning Defense into Offense: Defensin Mimetics as Novel Antibiotics Targeting Lipid II” (PLoS Pathogens, 2013):

Columns and labels:
[1] = Cytotoxicity by MTT assay; format: cell-based, human; conditions: human, Jurkat cells; concentration resulting in 50% cell survival, MTT, 4 h; read-out: Cytotoxicity (C50%) Jurkat
[2] = tested on: S. aureus MMX100 (ATCC 29213); assay: Macromolecular synthesis assays (mechanism of action); format: cell-based, Staphylococcus aureus
Protocol: Macromolecular synthesis inhibition by BAS00127538 and 1499-1221 were investigated using S. aureus MMX100 (ATCC 29213). Cells were grown at 35°C overnight on Tryptic Soy Agar Broth (Remel, Lenexa, KS), and growth from the plate was used to inoculate 15 ml of Mueller Hinton Broth. The culture was grown to early exponential growth phase (OD600 = 0.2 to 0.3) while incubating in a shaker at 35°C and 150 rpm. For each macromolecular assay, the test agents 1499-1221 and BAS00127538 were added at either 0, 0.25, 0.5, 1, 2, or 4, -fold their respective MIC values for S. aureus ATCC 29213.
For DNA and protein synthesis, 100 µl of cell culture reaching early exponential phase was added to triplicate wells containing various concentrations of test compound or control antibiotics (2.5 µl) at 40× the final concentration in 100% DMSO (0.1% methanol in water for Rifampicin). A 2.5% DMSO treated culture served as the “no drug” control for all experiments. Cells were added in 1.25× strength MHB to account for the volume of drug added to each reaction, or in M9 minimal medium for protein synthesis reactions. Following a 5 min incubation at room temperature either [^3H]Thymidine (DNA synthesis) or [^3H]Leucine (protein synthesis) was added at 0.5–1.0 µCi per reaction, depending on the experiment. Reactions were allowed to proceed at room temperature for 15–40 min and then stopped by adding 12 µl of cold 5% trichloroacetic acid (TCA) or 5% TCA/2% casamino acids (protein synthesis). Reactions were incubated on ice for 30 min and the TCA precipitated material was collected on a 25 mm GF/1.2 µm PES 96 well filter plate (Corning). After washing five times with 200 µl per well of cold 5% TCA, the filters were allowed to dry, and then counted using a Packard Top Count microplate scintillation counter.
For cell wall synthesis, bacterial cells in early exponential growth phase were transferred to M9 minimal medium and added to 1.5 ml eppendorf tubes (100 µl/tube) containing various concentrations of test compound or control antibiotics (2.5 µl) at 40× the final concentration in 100% DMSO as described above. Following a 5 min incubation at 37°C, [^14C] N-acetyl-glucosamine (0.4 µCi/reaction) was added to each tube and incubated for 45 min in a 37°C heating block. […] After washing three times with 5 ml of 0.1% SDS, the filters were rinsed two times with 5 ml of deionized water, allowed to dry, and then counted using a Beckman LS3801 liquid scintillation counter.
For lipid synthesis, bacterial cells were grown to early exponential growth phase in MHB and 100 µl was added to 1.5 ml Eppendorf tubes (in triplicate) containing various concentrations of test compound or control antibiotics as described above. […] Samples were then counted via liquid scintillation counting. […]

[3] = tested on: Escherichia coli ATCC 25922; assay: Antibacterial killing, 96-well turbidimetric (modified vCC) assay; format: cell-based; conditions: for active against E.coli (IC100%): Table S3, concentration at which 100% killing occurred, no bacterial regrowth, No = not active; for Bacterial Killing E. coli: concentration resulting in 100% killing after 30 min exposure, modified vCC assay
Procedure, shortened: (§1)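 For the S. pneumoniae strains, MIC values follow CLSI broth microdilution standards. The staphylococcal and E. coli killing assay instead pre-incubated bacteria with compound for 30 min in 10 mM phosphate buffer containing 5% DMSO before adding 2× Mueller-Hinton medium, monitoring growth over 12 hours.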

[4] = tested on: Staphylococcus aureus ATCC 29213; assay: as above; format: cell-based; conditions: concentration resulting in 100% killing after 30 min exposure, modified vCC assay
Procedure, shortened: as §1

[5] = NMR interaction with Lipid II; format: binding; conditions: 1D proton chemical shift changes on addition to 3-Lipid II
Protocol: The NMR samples consisted of 0.15 mM Lipid II, 0.15 mM BAS00127538 compound, or 0.15 mM Lipid II+0.15 mM BAS00127538 compound. All samples were dissolved in 90% double distilled H20+10% DMSO, incubated for 30 minutes, freeze-dried, and then dissolved in 300 µL of d6-DMSO. NMR experiments were carried out at 25°C on an 800 MHz Bruker Avance NMR spectrometer (800.27 MHz for protons) equipped with a pulse-field gradient unit, four frequency channels, and a triple resonance TXI cryoprobe (Bruker Biospin, Billerica, MA). 1D proton experiments were collected to probe for chemical shift changes and 2D TOCSY (30, 60, and 90 msec spinlock times), 2D NOESY (150 and 300 msec mixing times), and natural abundance ^13C-HSQC experiments were collected to determine proton and carbon chemical shift assignments.

[6] = Surface Plasmon Resonance binding to immobilized 3-Lipid II; conditions: SPR; for Binding on Lipid II?: Table S3, initial determination at 10 µM
Procedure, shortened: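 Binding was measured by Surface Plasmon Resonance on a BIAcore T100 instrument at 25°C. Peptides were injected over the sensor flow-cells at 30 µl/min in running buffer of 10 mM HEPES, 150 mM NaCl, 0.05% surfactant P20, pH 7.4 (±3 mM EDTA) with 10% DMSO. Control flow-cell signals were subtracted, surfaces were regenerated with 50 mM NaOH, and isotherms were fitted with BIAcore software.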

SMILES | IC50 at 4 h [1] | likely primary mechanism of action ([2]; mechanism of action studies, Figure S4) | active against E.coli (IC100%) [3] | Bacterial Killing E. coli [3] | Bacterial Killing S. aureus [4] | interaction with Lipid II by NMR [5] | Binding on Lipid II? [6] | inhibition of DNA, lipid or protein synthesis ([2]; 1× MIC) | inhibition of cell wall synthesis ([2]; 1× MIC, [14C]N-acetyl-glucosamine incorporation) | DNA, protein and lipid synthesis ([2]; elevated concentrations (above 1× MIC)) | Kd ([6]; immobilized 3-Lipid II)
CN(C)c1ccc(/C=C/c2cc(-c3ccccc3)[o+]c(-c3ccccc3)c2)cc1 [Compound 1499-1221] | 18.6 µM | membrane perturbation | 125 µM | 125 µM | 0.031 µM | could not be confirmed | No | – | – | – | –
CN1/C(=C/C=C/c2cc(-c3ccccc3)cc(-c3ccccc3)[o+]2)C(C)(C)c2ccccc21 [BAS00127538, 2,4-diphenyl-6-[(1E)-3-[(2E)-1,3,3-trimethyl-2,3-dihydro-1H-indol-2-ylidene]prop-1-en-1-yl]-1$l^4-pyran-1-ylium] | 14.5 µM | – | 7,8 µM | 7.8 µM | 0.244 µM | found to interact | Yes | not DNA, lipid or protein synthesis | significantly inhibited cell wall synthesis | reduced | 1.71 µM
